ChEMBL document CHEMBL1201862, “PubChem BioAssay data set” (2004)
Active and inactive are the calls of the source.

Legend:
Candida albicans = experiment: reversal of fluconazole resistance in C. albicans, dose response, CaCi-2 strain, Alamar Blue, dry powder, set 3 (AID 488907); format: functional, organism-based
[1] = molecular target: T1, Beta-2 adrenergic receptor (Homo sapiens, UniProt P07550); experiment: beta2AR agonists driving receptor internalization, dose response, cell-based, FAP fluorogen, flow cytometry, cherry pick 1 (AID 588763); format: functional
T1 sequence (P07550 whole entry): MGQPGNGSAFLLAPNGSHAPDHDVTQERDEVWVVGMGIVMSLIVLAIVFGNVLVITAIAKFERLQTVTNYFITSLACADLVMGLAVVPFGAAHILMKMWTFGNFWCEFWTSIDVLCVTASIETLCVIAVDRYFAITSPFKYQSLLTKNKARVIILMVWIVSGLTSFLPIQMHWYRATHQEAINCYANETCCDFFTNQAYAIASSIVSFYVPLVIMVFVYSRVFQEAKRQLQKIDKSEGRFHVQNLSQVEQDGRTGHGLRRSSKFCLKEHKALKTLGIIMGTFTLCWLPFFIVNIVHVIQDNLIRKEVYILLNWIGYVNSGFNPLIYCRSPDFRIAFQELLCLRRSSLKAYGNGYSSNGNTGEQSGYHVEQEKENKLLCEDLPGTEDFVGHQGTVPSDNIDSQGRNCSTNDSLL

[2] = molecular target: T1, Beta-2 adrenergic receptor; experiment: Dose response for HTS for Beta-2AR agonists via FAP method from Powderset1.; format: functional
[3] = molecular target: Dual specificity protein kinase CLK1 (Homo sapiens, UniProt P49759); experiment: CLK1 kinase inhibitors, off-target check, dose response, selectivity assay for Dyrk1A inhibitor project, biochemical, cherry-picked samples (AID 588811)
Procathepsin L = Procathepsin L (Homo sapiens, UniProt P07711); experiment: cathepsin L inhibitors, dose response, counter-screen for M1/M17 aminopeptidase inhibitor project, biochemical, QFRET, 1536-well (AID 2214)
Procathepsin L, sequence (P07711 whole entry): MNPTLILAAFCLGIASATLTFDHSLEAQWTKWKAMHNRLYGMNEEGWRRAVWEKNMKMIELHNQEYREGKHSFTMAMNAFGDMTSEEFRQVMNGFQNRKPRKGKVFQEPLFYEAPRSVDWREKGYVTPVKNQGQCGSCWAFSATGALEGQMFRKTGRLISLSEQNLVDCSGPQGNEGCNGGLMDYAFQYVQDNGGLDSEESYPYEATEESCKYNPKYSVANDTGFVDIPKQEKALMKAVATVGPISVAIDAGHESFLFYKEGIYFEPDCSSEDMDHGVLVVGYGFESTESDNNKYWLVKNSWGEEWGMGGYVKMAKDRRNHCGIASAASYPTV

Aspartyl aminopeptidase = Aspartyl aminopeptidase (Plasmodium falciparum 3D7, UniProt Q8I2J3); experiment: Counterscreen for inhibitors of M1 and M17 aminopeptidases: QFRET-based biochemical high throughput dose response assay for inhibitors of the Plasmodium falciparum M18 Aspartyl Aminopeptidase (PFM18AAP). [Related PubChem assays: 1619 (Screening assay (M17LAP inhibitors).), 1445 (Screening assay (M1AAP inhibitors).)]
Aspartyl aminopeptidase, sequence (Q8I2J3 whole entry): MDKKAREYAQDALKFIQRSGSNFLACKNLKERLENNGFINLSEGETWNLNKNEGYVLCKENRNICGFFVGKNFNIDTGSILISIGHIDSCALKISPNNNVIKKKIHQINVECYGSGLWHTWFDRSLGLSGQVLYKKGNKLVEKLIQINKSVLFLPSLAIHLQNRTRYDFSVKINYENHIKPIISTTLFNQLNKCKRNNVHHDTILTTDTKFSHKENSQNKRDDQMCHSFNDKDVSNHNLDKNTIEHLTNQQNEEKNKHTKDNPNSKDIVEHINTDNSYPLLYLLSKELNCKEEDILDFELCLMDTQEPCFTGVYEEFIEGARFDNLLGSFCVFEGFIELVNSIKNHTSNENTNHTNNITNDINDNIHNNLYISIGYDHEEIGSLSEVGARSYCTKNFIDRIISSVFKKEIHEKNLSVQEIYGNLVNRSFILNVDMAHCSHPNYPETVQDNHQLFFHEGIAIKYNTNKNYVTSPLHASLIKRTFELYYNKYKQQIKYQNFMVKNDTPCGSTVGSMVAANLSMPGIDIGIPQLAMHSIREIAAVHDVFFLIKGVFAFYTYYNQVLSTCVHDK

Leucine aminopeptidase = molecular target: T2, Leucine aminopeptidase (Plasmodium falciparum 3D7, UniProt Q8IL11); experiment: P. falciparum M17LAP inhibitors, primary screen, biochemical, fluorogenic H-Leu-NHMec substrate, 1536-well (AID 1619); format: functional
T2 sequence (Q8IL11 whole entry): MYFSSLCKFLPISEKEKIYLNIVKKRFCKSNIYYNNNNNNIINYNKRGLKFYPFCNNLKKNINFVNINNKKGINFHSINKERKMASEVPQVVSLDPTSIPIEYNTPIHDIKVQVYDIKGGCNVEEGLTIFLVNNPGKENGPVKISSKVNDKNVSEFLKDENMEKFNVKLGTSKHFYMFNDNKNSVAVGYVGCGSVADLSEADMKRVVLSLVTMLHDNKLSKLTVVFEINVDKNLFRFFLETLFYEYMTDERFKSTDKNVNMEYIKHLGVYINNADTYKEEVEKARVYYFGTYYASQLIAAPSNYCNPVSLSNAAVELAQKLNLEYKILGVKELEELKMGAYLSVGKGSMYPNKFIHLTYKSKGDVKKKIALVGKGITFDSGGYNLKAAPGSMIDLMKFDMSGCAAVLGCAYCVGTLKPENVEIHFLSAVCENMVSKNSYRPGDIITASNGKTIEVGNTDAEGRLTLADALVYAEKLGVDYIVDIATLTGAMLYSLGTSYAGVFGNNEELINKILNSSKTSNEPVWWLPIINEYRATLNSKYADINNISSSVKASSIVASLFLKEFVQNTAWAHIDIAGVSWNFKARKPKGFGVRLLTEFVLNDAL

Escherichia coli = experiment: microbe, parasite or virus in culture
[4] = molecular target: Voltage-gated inwardly rectifying potassium channel KCNH2 (Homo sapiens, UniProt Q12809); details: Potency;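 further: confirmatory quantitative high-throughput screen measuring inhibition of hERG channel activity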
[5] = molecular target: Aryl hydrocarbon receptor (Homo sapiens, UniProt P35869); details: Potency;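 further: confirmatory quantitative high-throughput screen measuring activation of the AhR signaling pathway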
Aryl hydrocarbon receptor, sequence (P35869 whole entry): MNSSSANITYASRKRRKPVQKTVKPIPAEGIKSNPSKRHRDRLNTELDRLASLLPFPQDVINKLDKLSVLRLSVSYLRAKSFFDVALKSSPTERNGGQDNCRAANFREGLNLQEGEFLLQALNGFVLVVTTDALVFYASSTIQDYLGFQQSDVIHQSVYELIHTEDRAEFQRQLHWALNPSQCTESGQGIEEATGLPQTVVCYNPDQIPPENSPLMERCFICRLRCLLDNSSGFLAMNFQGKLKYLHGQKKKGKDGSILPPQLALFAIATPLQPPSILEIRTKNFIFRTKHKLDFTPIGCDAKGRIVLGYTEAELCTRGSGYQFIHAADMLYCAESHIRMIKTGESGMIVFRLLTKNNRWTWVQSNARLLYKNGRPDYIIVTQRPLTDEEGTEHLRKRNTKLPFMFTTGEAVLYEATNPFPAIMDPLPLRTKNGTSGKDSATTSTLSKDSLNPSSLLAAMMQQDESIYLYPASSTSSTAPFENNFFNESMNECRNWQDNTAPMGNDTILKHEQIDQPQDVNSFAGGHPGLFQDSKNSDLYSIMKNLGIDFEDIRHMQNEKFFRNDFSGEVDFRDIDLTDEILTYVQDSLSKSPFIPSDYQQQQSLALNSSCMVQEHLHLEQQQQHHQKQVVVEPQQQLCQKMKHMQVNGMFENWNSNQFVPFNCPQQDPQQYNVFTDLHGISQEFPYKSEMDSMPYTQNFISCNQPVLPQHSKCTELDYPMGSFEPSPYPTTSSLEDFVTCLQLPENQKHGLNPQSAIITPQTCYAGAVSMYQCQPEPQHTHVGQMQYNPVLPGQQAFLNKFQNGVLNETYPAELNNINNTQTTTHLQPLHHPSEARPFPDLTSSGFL

[6] = molecular target: T3, Rac GTPase-activating protein 1 (Homo sapiens, UniProt Q9H0H5); experiment: MgcRacGAP GTPase-activating activity inhibitors, confirmation, biochemical, ADP Hunter fluorescence, primary and confirmatory (AID 624330); format: functional
T3 sequence (Q9H0H5 whole entry): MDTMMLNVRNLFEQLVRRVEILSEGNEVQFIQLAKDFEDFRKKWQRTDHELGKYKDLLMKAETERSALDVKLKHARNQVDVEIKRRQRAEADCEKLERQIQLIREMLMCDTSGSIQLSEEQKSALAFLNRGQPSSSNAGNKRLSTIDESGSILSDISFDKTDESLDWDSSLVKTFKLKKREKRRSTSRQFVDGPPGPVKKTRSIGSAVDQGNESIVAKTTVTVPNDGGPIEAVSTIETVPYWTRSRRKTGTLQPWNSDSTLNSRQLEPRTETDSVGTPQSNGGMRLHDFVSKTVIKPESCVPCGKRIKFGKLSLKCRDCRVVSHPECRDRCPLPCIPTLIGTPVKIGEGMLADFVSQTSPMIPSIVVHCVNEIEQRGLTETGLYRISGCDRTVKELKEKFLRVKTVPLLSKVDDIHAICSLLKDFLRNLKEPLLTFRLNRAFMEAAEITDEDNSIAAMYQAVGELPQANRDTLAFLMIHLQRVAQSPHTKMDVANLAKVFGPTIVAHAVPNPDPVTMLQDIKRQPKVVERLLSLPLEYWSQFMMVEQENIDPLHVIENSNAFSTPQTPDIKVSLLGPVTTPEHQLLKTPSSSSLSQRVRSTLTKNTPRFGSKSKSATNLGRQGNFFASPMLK

[7] = molecular target: T4, Ubiquitin-conjugating enzyme E2 N (Homo sapiens, UniProt P61088); format: functional;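 further: Dose-response confirmation in a TR-FRET assay detecting UBC13-driven polyubiquitin chain formation, inhibition measured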
T4 sequence (P61088 whole entry): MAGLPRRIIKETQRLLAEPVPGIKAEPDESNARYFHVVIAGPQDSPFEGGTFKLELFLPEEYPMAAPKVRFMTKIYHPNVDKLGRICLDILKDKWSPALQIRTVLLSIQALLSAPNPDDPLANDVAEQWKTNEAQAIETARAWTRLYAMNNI

[8] = THP-1 cell cytotoxicity, dose response, cytotoxicity control for non-replicating M. tuberculosis project (AID 489025); format: functional
[9] = molecular target: T5, Microphthalmia-associated transcription factor (Homo sapiens, UniProt O75030); experiment: TRPM1 promoter luciferase signal decrease, dose response, MITF inhibitor project, cell-based, SK-MEL-5, cherry-picked, set 3 (AID 493073); format: functional
T5 sequence (O75030 whole entry): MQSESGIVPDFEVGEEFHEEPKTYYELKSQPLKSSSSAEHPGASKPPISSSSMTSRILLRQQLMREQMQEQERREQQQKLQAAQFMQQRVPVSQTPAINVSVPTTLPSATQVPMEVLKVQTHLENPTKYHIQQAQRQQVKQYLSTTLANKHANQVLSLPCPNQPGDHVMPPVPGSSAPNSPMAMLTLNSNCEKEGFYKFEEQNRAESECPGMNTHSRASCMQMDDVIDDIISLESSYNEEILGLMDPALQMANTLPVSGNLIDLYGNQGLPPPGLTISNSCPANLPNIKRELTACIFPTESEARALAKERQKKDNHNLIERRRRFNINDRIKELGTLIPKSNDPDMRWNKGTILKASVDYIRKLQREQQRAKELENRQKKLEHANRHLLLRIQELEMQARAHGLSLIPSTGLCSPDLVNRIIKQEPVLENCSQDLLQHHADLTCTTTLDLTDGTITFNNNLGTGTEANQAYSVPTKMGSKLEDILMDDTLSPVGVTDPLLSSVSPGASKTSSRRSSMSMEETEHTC

A-375 = experiment: A375 melanoma cell viability reduction, dose response, counter-screen for MITF modulator project, cherry-pick samples, set 2 (AID 540335); format: functional, cell-based; details: Homo sapiens
cells = format: functional
[10] = HepG2 cell cytotoxicity, dose response, cytotoxicity control, plate reader, cherry-pick, antagonist series (AID 743416); format: functional, cell-based
[11] = HeLa cell cytotoxicity, dose response, cytotoxicity control for MgcRacGAP inhibitor project (AID 624300); format: functional
[12] = A549 cell cytotoxicity, dose response, cytotoxicity control, plate reader, cherry-pick, antagonist series (AID 743412); format: functional, cell-based
[13] = LGR2 antagonists, dose response, cell-based, HEK293, CRE-luciferase reporter, cherry pick, set 2 (AID 743343); format: functional;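 further: transfected cells were stimulated with diluted bursicon conditioned medium after compound addition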
[14] = HEK293 cell cytotoxicity, dose response, cytotoxicity control, plate reader, cherry-picked samples (AID 743446); format: functional, cell-based
[15] = Vero E6 cell cytotoxicity, dose response, cytotoxicity control for non-replicating M. tuberculosis project, secondary assay (AID 492998); format: functional, VeroE6; details: Vero C1008
[16] = MC4R antagonists, dose response, counter-screen for LGR2 antagonist project, cell-based, plate reader, cherry pick (AID 743444); format: functional;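 further: transfected HEK 293 cells stimulated with alpha-MSH peptide; potency of inhibitors of the alpha-MSH evoked signal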
[17] = HepG2 cell cytotoxicity, dose response, cytotoxicity control for non-replicating M. tuberculosis project (AID 489018); format: functional; details: Mycobacterium tuberculosis
[18] = C. albicans growth with fluconazole, confirmation, fluorescence, retest (AID 2467); format: functional, cell-based
[19] = inhibitors of SNCA 5'UTR-driven reporter translation, confirmation, H4 neuroglioma cells, luminescence (AID 1988); format: functional, cell-based
Large T antigen = Large T antigen (Simian virus 40, UniProt P03070); format: functional, Betapolyomavirus macacae;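 further: Confirmatory-stage PubChem screen for compounds that inhibit SV40 T antigen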
Large T antigen, sequence (P03070 whole entry): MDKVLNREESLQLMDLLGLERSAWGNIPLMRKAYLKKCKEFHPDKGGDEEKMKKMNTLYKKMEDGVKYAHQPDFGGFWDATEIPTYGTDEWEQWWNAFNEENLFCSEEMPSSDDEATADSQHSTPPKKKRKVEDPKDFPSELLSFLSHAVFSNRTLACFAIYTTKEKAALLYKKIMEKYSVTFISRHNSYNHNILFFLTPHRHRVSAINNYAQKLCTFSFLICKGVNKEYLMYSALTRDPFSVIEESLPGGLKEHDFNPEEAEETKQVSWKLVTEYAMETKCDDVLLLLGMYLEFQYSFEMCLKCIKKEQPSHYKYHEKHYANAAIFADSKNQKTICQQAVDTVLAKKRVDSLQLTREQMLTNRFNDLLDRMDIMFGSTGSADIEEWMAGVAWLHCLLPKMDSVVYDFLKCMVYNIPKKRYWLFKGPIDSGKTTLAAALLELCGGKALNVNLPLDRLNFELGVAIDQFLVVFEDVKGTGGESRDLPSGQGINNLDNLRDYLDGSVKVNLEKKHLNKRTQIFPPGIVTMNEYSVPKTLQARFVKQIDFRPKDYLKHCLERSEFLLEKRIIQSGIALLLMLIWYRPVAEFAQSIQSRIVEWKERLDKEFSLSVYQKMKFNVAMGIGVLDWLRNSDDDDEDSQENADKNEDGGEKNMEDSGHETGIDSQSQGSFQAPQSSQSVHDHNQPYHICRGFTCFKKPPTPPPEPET

[20] = molecular target: Beta-adrenergic receptor kinase 1 (Homo sapiens, UniProt P25098); experiment: aptamer displacement from bead-bound GRK2 – biochemical, cherry pick 1, bead flow cytometry, dose response (AID 504500)
Beta-adrenergic receptor kinase 1, sequence (P25098 whole entry): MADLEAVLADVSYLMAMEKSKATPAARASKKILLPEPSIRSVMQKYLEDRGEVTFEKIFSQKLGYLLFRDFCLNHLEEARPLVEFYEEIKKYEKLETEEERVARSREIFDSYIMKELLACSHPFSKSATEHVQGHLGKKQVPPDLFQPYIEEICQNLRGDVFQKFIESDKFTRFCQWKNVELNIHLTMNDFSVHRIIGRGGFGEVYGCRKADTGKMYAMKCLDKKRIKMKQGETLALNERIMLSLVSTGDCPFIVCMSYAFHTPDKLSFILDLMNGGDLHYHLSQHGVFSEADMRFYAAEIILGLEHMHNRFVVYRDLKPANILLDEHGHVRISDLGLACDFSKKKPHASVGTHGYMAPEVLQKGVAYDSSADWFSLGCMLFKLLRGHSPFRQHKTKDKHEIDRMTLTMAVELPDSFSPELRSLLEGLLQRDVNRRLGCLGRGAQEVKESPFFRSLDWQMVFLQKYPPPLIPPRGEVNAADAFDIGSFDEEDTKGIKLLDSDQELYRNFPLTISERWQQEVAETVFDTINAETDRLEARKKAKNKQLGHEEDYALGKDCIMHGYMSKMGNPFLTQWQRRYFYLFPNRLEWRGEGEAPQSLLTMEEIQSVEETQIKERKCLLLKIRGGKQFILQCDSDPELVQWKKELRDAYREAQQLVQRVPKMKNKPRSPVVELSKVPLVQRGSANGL

[21] = molecular target: E3 ubiquitin-protein ligase XIAP (Homo sapiens, UniProt P98170); experiment: Counter Screen using XIAP-Bir3 for Chemical Antagonists of Bir1/2 domains of IAP-family anti-apoptotic proteins. [Related pubchem assays (depositor defined):AID1018, AID1449, AID1514, AID1638, AID1749, AID1750, AID488957, AID488963]
[22] = NIH-3T3 fibroblast cytotoxicity, dose response, cytotoxicity control, cell-based, fluorescence, Alamar Blue, secondary assay (AID 2327); format: functional;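 further: NIH-3T3 mouse fibroblasts cultured with fluconazole at 8 µg/mL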
[23] = inhibitors of firefly luciferase expression or activity, dose response, H4 neuroglioma cells, luminescence (AID 1990); format: functional, cell-based
[24] = molecular target: Sphingosine 1-phosphate receptor 1 (Homo sapiens, UniProt P21453); experiment: Late-stage fluorescence-based dose-response cell-based assay to identify agonists of the Sphingosine 1-Phosphate Receptor 4 (S1P4): Sphingosine 1-Phosphate Receptor 1 (S1P1) counterscreen assay. [Related pubchem assays (depositor defined):AID1509, AID1523, AID1563, AID1686, AID1701, AID1801, AID463107, AID463225, AID504400]; format: functional
Sphingosine 1-phosphate receptor 1, sequence (P21453 whole entry): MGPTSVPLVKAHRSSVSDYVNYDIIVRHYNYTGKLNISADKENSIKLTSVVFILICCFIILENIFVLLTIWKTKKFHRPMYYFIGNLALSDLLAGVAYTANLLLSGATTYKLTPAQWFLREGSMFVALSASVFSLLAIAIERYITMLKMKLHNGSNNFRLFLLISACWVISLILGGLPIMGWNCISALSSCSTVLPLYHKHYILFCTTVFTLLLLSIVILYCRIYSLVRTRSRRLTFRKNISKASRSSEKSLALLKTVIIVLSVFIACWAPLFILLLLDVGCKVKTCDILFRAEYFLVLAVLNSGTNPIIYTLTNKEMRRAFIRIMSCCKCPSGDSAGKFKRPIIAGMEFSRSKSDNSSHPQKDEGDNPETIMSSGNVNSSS

[25] = Late-stage assay provider results from the probe development effort to identify agonists of the Sphingosine 1-Phosphate Receptor 4 (S1P4): luminescence-based cell-based dose response assay to determine cytotoxicity of agonist compounds. [Related pubchem assays (depositor defined):AID1509, AID1523, AID1563, AID1686, AID1701, AID1801, AID463107, AID463225, AID504400]; format: functional
[26] = molecular target: Sphingosine 1-phosphate receptor 3 (Homo sapiens, UniProt Q99500); experiment: Late-stage fluorescence-based dose-response cell-based assay to identify agonists of the Sphingosine 1-Phosphate Receptor 4 (S1P4): Sphingosine 1-Phosphate Receptor 3 (S1P3) counterscreen assay. [Related pubchem assays (depositor defined):AID1509, AID1523, AID1563, AID1686, AID1701, AID1801, AID463107, AID463225, AID504400]; format: functional
[27] = molecular target: Sphingosine 1-phosphate receptor 2 (Homo sapiens, UniProt O95136); experiment: Late-stage fluorescence-based dose-response cell-based assay to identify agonists of the Sphingosine 1-Phosphate Receptor 4 (S1P4): Sphingosine 1-Phosphate Receptor 2 (S1P2) counterscreen assay. [Related pubchem assays (depositor defined):AID1509, AID1523, AID1563, AID1686, AID1701, AID1801, AID463107, AID463225, AID504400]; format: functional
Sphingosine 1-phosphate receptor 2, sequence (O95136 whole entry): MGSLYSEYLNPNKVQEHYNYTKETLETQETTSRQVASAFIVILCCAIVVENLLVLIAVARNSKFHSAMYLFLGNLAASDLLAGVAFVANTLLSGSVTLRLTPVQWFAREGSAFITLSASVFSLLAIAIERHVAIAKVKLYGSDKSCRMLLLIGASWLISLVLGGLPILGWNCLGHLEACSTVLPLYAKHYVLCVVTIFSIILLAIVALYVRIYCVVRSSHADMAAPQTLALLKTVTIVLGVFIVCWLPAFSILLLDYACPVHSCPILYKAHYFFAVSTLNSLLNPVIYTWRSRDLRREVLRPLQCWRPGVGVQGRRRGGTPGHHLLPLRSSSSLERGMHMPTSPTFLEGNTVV

[28] = molecular target: Sphingosine 1-phosphate receptor 4 (Homo sapiens, UniProt O95977); experiment: Late-stage fluorescence dose response cell-based counterscreening assay for agonists of the Sphingosine 1-Phosphate Receptor 4 (S1P4): inhibition by S1P4-selective antagonist. [Related pubchem assays (depositor defined):AID1509, AID1523, AID1563, AID1686, AID1701, AID1801, AID463107, AID463118, AID463119, AID463122, AID463123, AID463129, AID504400]; format: functional
Sphingosine 1-phosphate receptor 4, sequence (O95977 whole entry): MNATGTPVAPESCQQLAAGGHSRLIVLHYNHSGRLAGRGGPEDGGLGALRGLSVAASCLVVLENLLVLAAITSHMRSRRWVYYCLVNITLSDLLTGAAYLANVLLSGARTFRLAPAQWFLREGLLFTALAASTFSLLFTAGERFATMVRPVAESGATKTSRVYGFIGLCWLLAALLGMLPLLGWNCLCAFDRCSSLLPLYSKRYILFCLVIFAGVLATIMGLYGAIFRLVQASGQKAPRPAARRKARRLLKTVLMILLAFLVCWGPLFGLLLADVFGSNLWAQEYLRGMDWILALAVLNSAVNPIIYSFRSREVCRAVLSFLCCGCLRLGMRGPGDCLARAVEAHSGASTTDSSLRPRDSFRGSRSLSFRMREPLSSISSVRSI

[29] = molecular target: Sphingosine 1-phosphate receptor 5 (Homo sapiens, UniProt Q9H228); experiment: Late-stage fluorescence-based dose-response cell-based assay to identify agonists of the Sphingosine 1-Phosphate Receptor 4 (S1P4): Sphingosine 1-Phosphate Receptor 5 (S1P5) counterscreen assay. [Related pubchem assays (depositor defined):AID1509, AID1523, AID1563, AID1686, AID1701, AID1801, AID463107, AID463225, AID504400]; format: functional

N#Cc1cccnc1N1CCN(C(=O)c2ccc(Cl)cc2)CC1
AC50 (Candida albicans): 0.611 µM (active)

CSc1ccc(CN2CCC(Oc3ccc(C(=O)N4CCCC4)cc3)CC2)cc1
EC50 [1]: 1.39 µM (active)
EC50 [2]: 0.348 µM (active)

CN(C)c1ccc(-c2nccc(NCc3cccs3)n2)cc1
AC50 [3]: 0.265 µM (active)

COc1ccc2nc(SCC(=O)Nc3cc(OC)c(OC)cc3C(=O)O)c(C)cc2c1
IC50 (Procathepsin L): > 59.6 µM (not active)
IC50 (Aspartyl aminopeptidase): > 73.5 µM (not active)
IC50 (Leucine aminopeptidase): < 1 µM (active)
AC50 (Escherichia coli): 27.6 µM (active)

COP(=S)(OC)Oc1ccc(SC)c(C)c1 [FENTHION]
AC50 [4]: 22.4 µM (inconclusive)
AC50 [5]: 50.1 µM (inconclusive)

CC(C)(c1ccccc1)c1ccc(OCC(O)CNC2CCN(Cc3ccccc3)CC2)cc1 (configuration not stated)
IC50 [6]: 50.6 µM (active)
IC50 [7]: > 20 µM (inactive)
CC50 [8]: 6.44 µM (active)
AC50 [9]: 7.94 µM (active)
AC50 (A-375): 18.1 µM (active)
IC50 (cells): 5.15 µM (active)
AC50 [10]: 4.23 µM (active)
CC50 [11]: 17.6 µM (active)
AC50 [12]: 6.42 µM (active)
AC50 [13]: 10.5 µM (active)
AC50 [14]: 8.12 µM (active)
CC50 [15]: 5.72 µM (active)
AC50 [16]: 6.77 µM (active)
CC50 [17]: 6.65 µM (active)

O=S(=O)(O)c1cc(O)c2c(O)c(N=Nc3cc(Cl)ccc3O)c(S(=O)(=O)O)cc2c1
EC50 [18]: > 38 µM (not active)
EC50 [19]: 14.8 µM (active)
IC50 (Large T antigen): 13.4 µM (active)
EC50 [20]: 16.3 µM (inactive)
IC50 [21]: > 20 µM (inactive)
EC50 [22]: > 150 µM (inactive)
EC50 [23]: 13.1 µM (active)

Clc1ccc(OCCOc2ccc(Br)nc2Br)c(Cl)c1
EC50 [24]: > 50 µM (inactive)
CC50 [25]: > 20 µM (inactive)
EC50 [26]: > 50 µM (inactive)
EC50 [27]: > 50 µM (inactive)
IC50 [28]: 0.83 µM (active)
EC50 [29]: > 50 µM (inactive)
